Measured values published in patent US11149022B2, “Antagonists of the muscarinic acetylcholine receptor M4” (Vanderbilt University, priority 2017, dated 2021).

Target: T1, Human M4 (Homo sapiens, UniProt P08173)
T1 construct: expressed in transfected cells; host or cells: CHO-K1 (ATCC), stably co-expressing chimeric G protein Gqi5
T1 sequence (P08173 1-479): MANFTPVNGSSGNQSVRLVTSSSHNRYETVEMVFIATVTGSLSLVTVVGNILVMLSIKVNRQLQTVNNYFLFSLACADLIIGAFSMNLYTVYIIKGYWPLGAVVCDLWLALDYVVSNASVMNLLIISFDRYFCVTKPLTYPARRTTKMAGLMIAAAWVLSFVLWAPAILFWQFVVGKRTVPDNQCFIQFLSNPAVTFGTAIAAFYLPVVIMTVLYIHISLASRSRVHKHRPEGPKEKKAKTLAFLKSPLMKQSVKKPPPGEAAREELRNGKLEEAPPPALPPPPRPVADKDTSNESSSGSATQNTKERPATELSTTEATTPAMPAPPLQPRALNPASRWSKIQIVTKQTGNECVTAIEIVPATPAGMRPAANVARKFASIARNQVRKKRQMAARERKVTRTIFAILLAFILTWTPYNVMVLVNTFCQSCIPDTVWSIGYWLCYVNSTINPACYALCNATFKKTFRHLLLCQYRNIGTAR
Assay: mAChR M4 cell-based functional assay (calcium flux, antagonist mode)
Settings: for remaining activity at 30 µM: % ACh maximum at 30 μM, read-out: Emin; for IC50: M4/Gqi5/CHO-K1 cells, concentration-dependent decrease of the EC80 acetylcholine response
Description: Human or rat M4 cDNA, along with the chimeric G protein Gqi5, were transfected into Chinese hamster ovary (CHO-K1) cells purchased from the American Type Culture Collection using Lipofectamine2000. M4/Gqi5/CHO cells were grown in Ham's F-12 medium containing 10% heat-inactivated fetal bovine serum (FBS), 20 mM HEPES, 500 μg/mL G418 sulfate, and 200 μg/mL Hygromycin B.
For high throughput measurement of agonist-evoked increases in intracellular calcium, CHO-K1 cells stably expressing muscarinic receptors were plated in growth medium lacking G418 and hygromycin at 15,000 cells/20 μL/well in Greiner 384-well black-walled, tissue culture (TC)-treated, clear-bottom plates (VWR). Cells were incubated overnight at 37° C. and 5% CO2. The next day, cells were washed using an ELX 405 (BioTek) with assay buffer; the final volume was then aspirated to 20 μL, Next, 20 μL of a 2.3 μM stock of Fluo-4/acetoxymethyl ester (Invitrogen, Carlsbad, Calif.), prepared as a 2.3 μM stock in DMSO, mixed in a 1:1 ratio with 10% (w/v) Pluronic F-127 and diluted in assay buffer, was added to the wells and the cell plates were incubated for 50 min at 37° C. and 5% CO2. Dye was removed by washing with the ELX 405 and the final volume was aspirated to […]. Compound master plates were formatted in a 10 point concentration-response curve (CRC) format (1:3 dilutions) in 100% DMSO with a starting concentration of 10 or 1 mM using a BRAVO liquid handler (Agilent). Test compound CRCs were then transferred to daughter plates (240 nL) using the Echo acoustic plate reformatter (Labcyte, Sunnyvale, Calif.) and then diluted into assay buffer (40 μL) to a 2× stock using a Thermo Fisher Combi (Thermo Fisher Scientific, Waltham, Mass.).
Calcium flux was measured using the Functional Drug Screening System (FDSS) 6000 or 7000 (Hamamatsu Corporation, Tokyo, Japan) as an increase in the fluorescent static ratio. Compounds were applied to cells (20 μL, 2×) using the automated system of the FDSS at 2 seconds into the protocol and the data were collected at 1 Hz. At 143 s, 10 μL of an EC20 concentration of the muscarinic receptor agonist acetylcholine was added (5×), followed by the addition of 12 μL of an EC80 concentration of acetylcholine at the 268 s time point (5×). Agonist activity was analyzed as a concentration-dependent increase in calcium mobilization upon compound addition. Positive allosteric modulator activity was analyzed as a concentration-dependent increase in the EC20 acetylcholine response. Antagonist activity was analyzed as a concentration-dependent decrease in the EC80 acetylcholine response; for the purposes of the tables herein, an […] (inhibitory concentration 50) was calculated as a concentration-dependent decrease of the response elicited by an EC80 concentration of acetylcholine. Concentration-response curves were generated using a four-parameter logistical equation in XLFit curve fitting software (IDBS, Bridgewater, N.J.) for Excel (Microsoft, Redmond, Wash.) or Prism (GraphPad Software, Inc., San Diego, Calif.) or the Dotmatics software platform (Dotmatics, Bishop's Stortford, UK).
Compounds were synthesized as described above. Activity (IC50 and Emin) was determined in the mAChR M4 cell-based functional assay as described above and the data are shown in Table 4.

| Compound | remaining activity at 30 µM [%] | IC50 [nM] |
| --- | --- | --- |
| Cc1cnn(C)c1-c1ccc(OC2CC3(CCN(CC4CCCCC4)CC3)C2)nn1 [Compound 34, 7-(cyclohexylmethyl)-2-[6-(2,4-dimethylpyrazol-3-yl)pyridazin-3-yl]oxy-7-azaspiro[3.5]nonane] | 4.38 | 850 |
| Cc1nn(C)cc1-c1ccc(OC2CC3(CCN(Cc4ccccc4)CC3)C2)nn1 [Compound 30, 7-benzyl-2-[6-(1,3-dimethylpyrazol-4-yl)pyridazin-3-yl]oxy-7-azaspiro[3.5]nonane] | 5.31 | 1630 |
| Cc1nn(C)cc1-c1ccc(OC2CC3(CCN(CCC(C)(C)C)CC3)C2)nn1 [Compound 13, 7-(3,3-Dimethylbutyl)-2-[6-(1,3-dimethylpyrazol-4-yl)pyridazin-3-yl]oxy-7-azaspiro[3.5]nonane] | 2.85 | 200 |
| Cc1cnn(C)c1-c1ccc(OC2CC3(CCN(CC4CC5C=CC4C5)CC3)C2)nn1 (centres unmarked) [Compound 32, 7-(5-bicyclo[2.2.1]hept-2-enylmethyl)-2-[6-(2,4-dimethylpyrazol-3-yl)pyridazin-3-yl]oxy-7-azaspiro[3.5]nonane] | 3.96 | 160 |
| Fc1ccc(Cl)c(-c2ccc(OC3CC4(CCN(CC5CCCCC5)CC4)C3)nn2)c1 [Compound 18, 2-[6-(2-chloro-5-fluoro-phenyl)pyridazin-3-yl]oxy-7-(cyclohexylmethyl)-7-azaspiro[3.5]nonane] | 2.94 | 760 |
| Fc1ccc(Cl)c(-c2ccc(OCC3CC4(CCN(CC5CC6C=CC5C6)CC4)C3)nn2)c1 (centres unmarked) [Compound 61, 7-(5-bicyclo[2.2.1]hept-2-enylmethyl)-2-[[6-(2-chloro-5-fluoro-phenyl)pyridazin-3-yl]oxymethyl]-7-azaspiro[3.5]nonane] | 3.96 | 250 |
| Cc1nn(C)cc1-c1ccc(NC2CC3(CCN(CC4CC5C=CC4C5)CC3)C2)nn1 (centres unmarked) [Compound 3, 7-(5-bicyclo[2.2.1]hept-2-enylmethyl)-N-[6-(1,3-dimethylpyrazol-4-yl)pyridazin-3-yl]-7-azaspiro[3.5]nonan-2-amine] | 3.12 | 10 |
| Cc1nn(C)cc1-c1ccc(NCC2CC3(CCN(CC45CC6CC(CC(C6)C4)C5)CC3)C2)nn1 [Compound 57, N-[[7-(1-adamantylmethyl)-7-azaspiro[3.5]nonan-2-yl]methyl]-6-(1,3-dimethylpyrazol-4-yl)pyridazin-3-amine] | 3.64 | 300 |
| Fc1ccc(Cl)c(-c2ccc(OCC3CC4(CCN(Cc5ccccc5)CC4)C3)nn2)c1 [Compound 65, 7-benzyl-2-[[6-(2-chIoro-5-fluoro-phenyl)pyridazin-3-yl]oxymethyl]-7-azaspiro[3.5]nonane] | 6.28 | 2660 |
| Cc1cnn(C)c1-c1ccc(OC2CC3(CCN(CC(C)C(C)(C)C)CC3)C2)nn1 (centres unmarked) [Compound 33, 2-[6-(2,4-dimethylpyrazol-3-yl)pyridazin-3-yl]oxy-7-(2,3,3-trimethylbutyl)-7-azaspiro[3.5]nonane] | 3.87 | 250 |
| Cc1nn(C)cc1-c1ccc(NC2CC3(CCN(CC4CCSCC4)CC3)C2)nn1 [Compound 6] | 4.58 | 330 |
| Cc1cnn(C)c1-c1ccc(OC2CC3(CCN(CC4CCOCC4)CC3)C2)nn1 [Compound 35, 2-[6-(2,4-dimethylpyrazol-3-yl)pyridazin-3-yl]oxy-7-(tetrahydropyran-4-ylmethyl)-7-azaspiro[3.5]nonane] | 17.8 | 6370 |
| Fc1ccc(Cl)c(-c2ccc(NCC3CC4(CCN(CC5CCCOC5)CC4)C3)nn2)c1 (centres unmarked) [Compound 43, 6-(2-chloro-5-fluoro-phenyl)-N-[[7-(tetrahydropyran-3-ylmethyl)-7-azaspiro[3.5]nonan-2-yl]methyl]pyridazin-3-amine] | 5.29 | 2280 |
